Columns and labels:
[1] = target: T1, human histamine H4 receptor (Homo sapiens, UniProt Q9H3N8); assay: [3H]histamine competition binding to membranes of SK-N-MC cells transfected with human H4 receptor
T1 construct: express a reporter gene construct and the human H4 receptor full-coding region; expressed in transfected cells; host or cells: SK-N-MC cells with a CRE-beta-galactosidase reporter

[2] = system: RBL-CCR1 (Rat Basophil Leukemia-Chemokine Receptor-1) cell line; assay: Mast cell degranulation / cell stabilization in RBL-CCR1 cells; format: cell-based
Procedure: The cell stabilization potential of alcaftadine was evaluated using the RBL-CCR1 (Rat Basophil Leukemia-Chemokine Receptor-1) cell line as a way of investigating its ability to effect mast cell stabilization. The use of basophil cell lines to assess anti-allergic drugs for cell stabilization potential is well established. Physiologically, basophils are similar to mast cells, containing pre-formed inflammatory mediators that are released through a similar degranulation process involving IgE cross-linking. Because these cell lines are readily available, they present efficiencies over conducting stabilization assays in mast cell lines.
Cultured RBL-CCR1 cells were sensitized to anti-DNP IgE. Following sensitization, cells were treated with various concentrations of alcaftadine or its major active metabolite (0.083%, 0.0083% and 0.00083%) or ophthalmic vehicle (placebo), and stimulated with DNP and/or MIP-1a (Macrophage Inflammatory Protein-1 alpha, a degranulation enhancer) to induce degranulation. A 10× and 100× placebo control solution (ophthalmic vehicle solution) in D-DEM (Dulbecco's modified Eagle's medium) was also employed.
However, co-stimulation induced a robust degranulation response.

[3] = system: adult volunteers with a history of allergic conjunctivitis; assay: Conjunctival Allergen Challenge (CAC) in adult volunteers; format: in vivo, human
Procedure: The anti-allergic effect of a single dose of each of the three concentrations of alcaftadine ophthalmic solutions from Example 1 was assessed in a Conjunctival Allergen Challenge (“CAC”) performed on adult volunteers with a history of allergic conjunctivitis. Subjects were selected after two visits to confirm reactivity to the allergen challenge. […] Subjects were then challenged with allergen by instilling reconstituted commercially available allergen into each eye on two separate visits 16 hours and 15 minutes after the bilateral instillation of alcaftadine, PATANOL® olopatadine hydrochloride ophthalmic solution 0.1% (Alcon, Inc., Fort Worth, Tex.) or vehicle, and the clinical response assessed.
Assessments were made at 7, 15 and 20 minutes post challenge based on investigator evaluations of redness using a 5 point scale.
Nasal symptoms of sneezing, rhinorrhea, pruritis (nasal and ear/palate) and nasal congestion were assessed by subjects using standardized scales.

[4] = Systemic (plasma) levels of alcaftadine in patients; format: in vivo, human; conditions: for Mean Cmax: plasma, 0.25% ophthalmic solution bilaterally
Procedure: Patients were bilaterally dosed with 0.25% ophthalmic solutions of alcaftadine for seven days. The plasma levels of those patients was assessed pre-dose, and 0.25, 0.5, 1, 1.5, 2, 3, 4, 6, 8, 12, and 18 hour post medication instillation on days one and seven. Plasma concentrations of Alcaftadine reached Cmax rapidly and declined to below the lower limit of quantification (0.01 ng/mL) by 3 hours post dosing.

ZO-1 = assay: Integrity of conjunctival epithelium after conjunctival allergen challenge: ZO-1 expression (confocal microscopy); format: in vivo, mice
Procedure: (§1) To investigate the ability of alcaftadine to maintain the integrity of conjunctival epithelium, changes in the expression of the tight junction proteins ZO-1 and E-cadherin (an induction for E-cadherin and qualitative change-from focal to diffuse for ZO-1) were evaluated following specific conjunctival allergen challenge. These changes are associated with an increased permeability of the conjunctival and other epithelial tissues. This in vivo experiment examined what effect alcaftadine (topical administration 1 and 2 hours pre-challenge) had on the modulation of these proteins.
(§2) Mice were sensitized with short ragweed (SRW) in aluminum hydroxide via intraperitoneal administration (Day 0, 7, and 15) and eye drop instillation (Day 8 and 15). On Day 20, mice were further sensitized with eye drops containing only SRW. On Day 27, the mice were treated topically with either 5 μL alcaftadine or vehicle at 1 and 2 hours prior to challenge. SRW was instilled topically to both eyes. The expression of these proteins in naive eyes were also monitored. Changes in the expression of the tight junction proteins ZO-1 and E-cadherin were observed 1-hour post conjunctival allergen challenge with SRW. The proteins were detected using FITC-conjugated monoclonal antibodies specific for ZO-1 and E-cadherin and were visualized by confocal microscopy (Ziess). […]

E-cadherin = assay: Integrity of conjunctival epithelium after conjunctival allergen challenge: E-cadherin expression (confocal microscopy); format: in vivo, mice
Procedure: as §1, §2

[5] = system: murine model of allergic conjunctivitis; assay: Eosinophil and neutrophil recruitment 24 hours post-CAC in murine model of allergic conjunctivitis, late phase; format: in vivo, mice; conditions: alcaftadine 2.5 mg/ml, 5 μL topical at 1 and 2 hours pre-challenge
Procedure: Alcaftadine ophthalmic solution was evaluated to determine if topical treatment could reduce early phase and late phase allergic inflammation in a murine model of allergic conjunctivitis. Evans Blue Dye Leakage was used to assess the impact on vascular permeability during the early phase inflammatory response Conjunctiva was taken at 24 hours, stained, and assessed for presence of neutrophil and eosinophil infiltration to evaluate late phase anti-inflammatory activity.
All mice were sensitized with short ragweed (SRW) in aluminum hydroxide via intraperitoneal administration (Day 0, 7, and 14) and eye drop instillation (Day 8 and 15). On Day 20, mice were again sensitized with eye drops of SRW.
On Day 27, two topical administrations of the clinical dose of alcaftadine 2.5 mg/ml or vehicle were instilled at 1 and 2 hours pre-challenge. Alcaftadine and vehicle were administered topically at a 5 μL saturating dose as treatment arms based on a randomization code. […]
Vascular leak was determined by means of Evans Blue Dye Extravasation following allergen challenge for N=6 animals except the alcaftadine treatment arm, where N=4 animals were sacrificed and tested (two animals died during the procedure). […] The numbers of eosinophils and neutrophils were determined both by light microscopy of Giemsa or H&E stained sections or by immunohistochemistry using cell specific monoclonal antibodies. […]

[6] = administered 16 hours prior to challenge
[7] = 5 μL topical at 1 and 2 hours prior to challenge, 1-hour post challenge
[8] = following specific conjunctival allergen challenge

Ki ([1]; average of two runs, 10 nM [3H]histamine, Cheng and Prusoff): 2.9 µM | pKi ([1]; compared with pA2): 5.5 | maximum plasma concentrations ([4]; all subjects): less than 0.12 ng/mL | Mean Cmax ([4]; Day 1): 0.051 ng/mL | Mean Cmax ([4]; Day 7): 0.060 ng/mL | time by which plasma concentrations declined to below the lower limit of quantification ([4]; post dosing, lower limit of quantification 0.01 ng/mL): ≤ 3 h
SMILES: CN1CCC(=C2c3ccccc3CCn3c(C=O)cnc32)CC1 [Alcaftadine, 6,11-dihydro-11-(1-methyl-4-piperidinylidene)-5H-imidazo[2,1-b][3]benzazepine-3-carboxaldehyde]
overall membrane stabilization [2]: effective membrane stabilizing agents | stabilization effect added to that of placebo ([2]; 10× dose level): enhanced the stabilization effect | degranulation at the highest concentration ([2]; […], DNP-HSA alone, MIP-1a alone, and co-stimulation): unanticipated and significant degranulation | cell stabilization compared to co-stimulation control and negative controls (placebo 10× and placebo 100×) ([2]; co-stimulation assay, concentrations of […] and […], p<0.0001 for both concentrations): superior at cell stabilization | itching scores versus vehicle or PATANOL ([3]; 0.25% treatment group, challenged 15 minutes post-treatment): lower itching scores than vehicle or PATANOL® | conjunctival redness scores versus vehicle or PATANOL ([3]; 0.25% treatment group, challenged at 15 minutes post-treatment): lower scores than vehicle or PATANOL® | inhibition of conjunctival redness [3, 6]: dose-related inhibition of conjunctival redness | inhibition of ocular itching [3, 6]: dose-related inhibition of ocular itching | mean itching scores versus vehicle or PATANOL ([3]; all concentrations, 16 hours prior to challenge, 3, 5 and 7 minutes post-challenge, 5 point scale): lower mean itching scores | mean conjunctival redness scores ([3]; all concentrations, 16 hours prior to challenge, 7, 15 and 20 minutes post challenge, 5 point scale): various degrees of reduction in mean conjunctival redness scores at most assessment times | relief of nasal congestion and rhinorrhea ([3]; all concentrations, various time points): some degree of relief | effect on sneezing ([3]; baseline sneezing incidence likely too low): No effect on sneezing was demonstrated | inhibition of ocular itching ([3]; challenged 15 minutes post-treatment): dose-related inhibition of ocular itching as compared to placebo | reduction of rhinorrhea, nasal congestion, and pruritis of the palate/ear ([3]; majority of timepoints at both onset and duration visits): significant reduction | ZO-1 staining, alcaftadine treatment versus naive (negative control) (ZO-1; [7]): no or minimal difference | integrity of conjunctival epithelial tight junctions (focal ZO-1 expression) (ZO-1; [8]): maintains the integrity of conjunctival epithelial tight junctions | E-cadherin staining, alcaftadine treatment versus naive (negative control) (E-cadherin; [7]): no or minimal difference | induction of E-cadherin expression (E-cadherin; [8]): inhibits the induction of E-cadherin expression | eosinophil or neutrophil recruitment in the late phase response [5]: did not prevent eosinophil or neutrophil recruitment | eosinophil or neutrophil recruitment in the late phase response ([5]; listed as alcaftadine): does not appear to inhibit eosinophil or neutrophil recruitment

From patent US10617695B2, “Ophthalmic compositions containing alcaftadine” (Vistakon Pharmaceuticals, LLC, priority 2006, dated 2020)
